Results taken from ChEMBL document CHEMBL4823297, “Anticancer properties of bisaminoquinolines with modified linkers” (Bioorg Med Chem Lett, 2021).

Legend:
[1] = Inhibition of autophagy in human A375P cells assessed as fold change in BNIP3 at 3 uM incubated for 24 hrs by immunoblot analysis relative to control; assay type: functional
[2] = Inhibition of autophagy in human A375P cells assessed as fold change in p62 at 3 uM incubated for 24 hrs by immunoblot analysis relative to control; assay type: functional
[3] = Cytotoxicity against human A375P cells incubated for 72 hrs by MTT assay; assay type: functional, cell-based
[4] = Inhibition of autophagy in human A375P cells assessed as fold change in LC3BII/ LC3BI ratio at 3 uM incubated for 24 hrs by immunoblot analysis relative to control; assay type: functional
[5] = Inhibition of autophagy in human A375P cells assessed as fold change in p-H2AX at 3 uM incubated for 24 hrs by immunoblot analysis relative to control; assay type: functional
[6] = Inhibition of autophagy in human A375P cells assessed as fold change in H2AX at 10 uM incubated for 24 hrs by immunoblot analysis relative to control; assay type: functional
[7] = Inhibition of autophagy in human A375P cells assessed as fold change in BNIP3 at 10 uM incubated for 24 hrs by immunoblot analysis relative to control; assay type: functional
[8] = Inhibition of autophagy in human A375P cells assessed as fold change in LC3BII/ LC3BI ratio at 10 uM incubated for 24 hrs by immunoblot analysis relative to control; assay type: functional
[9] = Inhibition of autophagy in human A375P cells assessed as fold change in p62 at 10 uM incubated for 24 hrs by immunoblot analysis relative to control; assay type: functional

SMILES	fold change (FC) [1]	fold change (FC) [2]	IC50 [3] [µM]	fold change (FC) [4]	fold change (FC) [5]	fold change (FC) [6]	fold change (FC) [7]	fold change (FC) [8]	fold change (FC) [9]
CN(CCCCCCNc1ccnc2cc(Cl)ccc12)CCCCCCNc1ccnc2cc(Cl)ccc12	3.2	1.8	0.49	24	4.7	–	–	–	–
CCCCCCCCN(CCNc1ccnc2cc(Cl)ccc12)CCNc1ccnc2cc(Cl)ccc12	5.9	4	1.28	26	–	–	–	–	–
CCCCCCCCN(CCCCCCNc1ccnc2cc(Cl)ccc12)CCCCCCNc1ccnc2cc(Cl)ccc12	0.7	1.6	0.42	27	–	–	–	–	–
CCOCCOCCN(CCNc1ccnc2cc(Cl)ccc12)CCNc1ccnc2cc(Cl)ccc12	–	–	5.99	–	–	–	–	–	–
NCCN(CCNc1ccnc2cc(Cl)ccc12)CCNc1ccnc2cc(Cl)ccc12	–	–	12.3	–	–	1.4	0.7	1	0.5
CNCCN(CCNc1ccnc2cc(Cl)ccc12)CCNc1ccnc2cc(Cl)ccc12	–	–	13	–	–	1.4	0.4	0.8	0.6
Clc1ccc2c(NCCCCCCNCCCCCCNc3ccnc4cc(Cl)ccc34)ccnc2c1	1.3	1.1	–	15.2	20.8	–	–	–	–
CN(C)CCN(CCNc1ccnc2cc(Cl)ccc12)CCNc1ccnc2cc(Cl)ccc12	–	–	4.6	–	–	3	1.7	4.8	0.8
CCOCCOCCN(CCCCCCNc1ccnc2cc(Cl)ccc12)CCCCCCNc1ccnc2cc(Cl)ccc12	5.1	2.7	0.65	28	–	–	–	–	–
